According to article PMC2680390 (Journal of medicinal chemistry, 2008):

Columns and labels:
[1] = target: ERβ/SRC-3 coactivator interaction (Homo sapiens, UniProt Q92731); assay: TR-FRET CBI assay, ERβ-LBD / SRC-3-NRD; type: binding; conditions: for TR-FRET Ki ERβ: estradiol present, fluorescein-SRC-3-NRD
ERβ = ERβ (Homo sapiens, UniProt Q92731); assay: Preliminary cell-based reporter gene systems, ERβ; conditions: preliminary studies
HEC-1 cells = assay: CellTiter 96 AQueous One Solution Cell Proliferation Assay; type: cell-based; conditions: doses up to 20 μM
[2] = target: T1, ERα/SRC-3 coactivator interaction (Homo sapiens, UniProt P03372, C381S/C530S); assay: TR-FRET CBI assay, ERα-LBD / SRC-3-NRD; type: binding; conditions: 1 μM estradiol, fluorescein-SRC-3-NRD 50 nM; for Ki: TR-FRET Ki ERα
T1 sequence (P03372 311-547 C381S/C530S limits assumed): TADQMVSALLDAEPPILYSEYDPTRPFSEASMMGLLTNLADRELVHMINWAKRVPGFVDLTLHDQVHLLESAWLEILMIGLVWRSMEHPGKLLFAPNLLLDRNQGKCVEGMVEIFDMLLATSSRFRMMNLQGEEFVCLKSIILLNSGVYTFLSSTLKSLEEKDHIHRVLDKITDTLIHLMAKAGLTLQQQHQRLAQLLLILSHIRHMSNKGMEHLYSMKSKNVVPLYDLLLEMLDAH

ERα coactivator binding = conditions: read-out: Ki by fluorescence polarization assay; FP assay; cited from earlier work
[3] = target: T2, ERβ ligand-binding domain (site-specifically labeled terbium/streptavidin-biotin/ER-LBD construct) (site-specifically labeled with biotin; bound to streptavidin-terbium in the assay); assay: FRET or BRET
T2 chain: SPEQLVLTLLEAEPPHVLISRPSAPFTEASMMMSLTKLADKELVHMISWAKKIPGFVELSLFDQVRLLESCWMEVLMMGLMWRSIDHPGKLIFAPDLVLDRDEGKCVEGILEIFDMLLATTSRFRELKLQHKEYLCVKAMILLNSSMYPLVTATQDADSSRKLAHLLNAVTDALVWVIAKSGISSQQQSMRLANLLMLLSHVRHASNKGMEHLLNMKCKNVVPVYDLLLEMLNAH

Chain of ERβ (Q92731 whole entry): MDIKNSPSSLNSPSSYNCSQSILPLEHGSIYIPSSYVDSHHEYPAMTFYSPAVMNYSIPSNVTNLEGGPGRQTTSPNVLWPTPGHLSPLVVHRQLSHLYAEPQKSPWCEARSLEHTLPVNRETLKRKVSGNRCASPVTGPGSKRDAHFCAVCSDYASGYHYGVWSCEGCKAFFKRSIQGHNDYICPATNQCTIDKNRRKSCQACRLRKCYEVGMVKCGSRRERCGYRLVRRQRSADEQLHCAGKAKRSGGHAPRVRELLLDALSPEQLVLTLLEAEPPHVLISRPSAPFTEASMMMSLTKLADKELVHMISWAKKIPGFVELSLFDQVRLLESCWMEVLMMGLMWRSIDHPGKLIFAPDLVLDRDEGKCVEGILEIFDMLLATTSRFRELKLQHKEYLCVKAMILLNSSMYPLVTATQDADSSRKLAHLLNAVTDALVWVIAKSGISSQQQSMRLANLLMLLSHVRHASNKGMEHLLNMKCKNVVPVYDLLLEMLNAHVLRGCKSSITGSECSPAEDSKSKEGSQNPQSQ

CC(C)CNc1cc(/C=C/c2ccccc2)nc(NCC(C)C)n1 [Compound 2a, N,N'-diisobutyl-(6-styryl-pyrimidin-2,4-yl)-diamine]
Ki [1]: 242 µM | TR-FRET Ki ERβ [1]: very modest affinity for ERβ

CC(C)CNc1cc(CCc2ccccc2)nc(NCC(C)C)n1 [Compound 3a]
Mechanism-based inhibition of ERβ in cell-based reporter gene systems (ERβ): no mechanism-based inhibition of ERβ | Viable cell counts (HEC-1 cells): decreased significantly only at the highest doses of compound (20 μM)

CC(C)CNc1nc(/C=C/c2ccccc2)cc(N(Cc2ccccc2)C(=O)OC(C)(C)C)n1 [Compound 8b]
TR-FRET Ki ERα [2]: no activity for ERα | TR-FRET Ki ERβ [1]: very modest affinity for ERβ

CC(C)CNc1cc(/C=C/c2ccccc2)nc(NCc2ccccc2)n1 [Compound 10a, N^2-Benzyl-N^4-isobutyl-6-styryl-pyrimidine-2,4-diamine]
Viable cell counts (HEC-1 cells): decreased significantly only at the highest doses of compound (20 μM)

CC(C)CCc1cc(NCC(C)C)nc(NCC(C)C)n1 [Compound 13b, 2,4-diisobutylamino-6-isoamylpyrimidine]
Mechanism-based inhibition of ERβ in cell-based reporter gene systems (ERβ): no mechanism-based inhibition of ERβ | Ki (ERα coactivator binding): 29 µM

CC(C)CCc1cc(NCC(C)C)nc(NCc2ccccc2)n1 [Compound 18b]
Viable cell counts (HEC-1 cells): decreased significantly only at the highest doses of compound (20 μM)

CC(C)CNc1cc(NCC(C)C)nc(NCC(C)C)n1 [Compound 25a, N,N',N''-Triisobutyl-pyrimidine-2,4,6-triamine]
TR-FRET Ki ERβ [1]: very modest affinity for ERβ | Viable cell counts (HEC-1 cells): decreased significantly only at the highest doses of compound (20 μM)

CC(C)CSc1cc(SCC(C)C)nc(SCC(C)C)n1 [Compound 25e, 2,4,6-Tris-isobutylsulfanyl-pyrimidine]
Ki [2]: 120 µM

CC(C)CNc1cc(Cl)nc(NCC(C)C)n1 [Compound 26, 2,4-diisobutylamino-6-chloropyrimidine]
TR-FRET Ki ERα [2]: complete loss of activity | Ki [2]: > 1000 µM | Ki [1]: > 1000 µM

CC(C)CNc1cc(NCc2ccccc2)nc(NCC(C)C)n1 [Compound 27a]
Ki [2]: 7.3 µM | Mechanism-based inhibition of ERβ in cell-based reporter gene systems (ERβ): no mechanism-based inhibition of ERβ

CC(C)CNc1cc(OCC(C)C)nc(NCC(C)C)n1 [Compound 27b]
TR-FRET Ki ERα [2]: lack of activity

CC(C)CNc1ccnc(NCC(C)C)n1 [Compound 27d, 2,4-diisobutylamino-pyrimidine]
TR-FRET Ki ERα [2]: complete loss of activity | Ki [2]: > 1000 µM | Ki [1]: > 1000 µM

CC(C)CNc1cc(S(=O)(=O)CC(C)C)nc(NCC(C)C)n1 [Compound 28]
TR-FRET Ki ERα [2]: lack of activity

CC(C)CCc1cc(NCC(C)C)nc(N(C)CC(C)C)n1 [Compound 31a]
TR-FRET Ki ERα [2]: activity is nearly fully restored

CC(C)CNc1cc(CCc2cccc3ccccc23)nc(N(C)CC(C)C)n1 [Compound 31c]
TR-FRET Ki ERα [2]: inactive

CC(C)CNc1cc(CCc2ccccc2)nc(N(C)CC(C)C)n1 [Compound 32, N^2-methyl-N^2,N^4-diisobutyl-(6-phenethyl-pyrimidin-2,4-yl)-diamine]
TR-FRET Ki ERα [2]: inactive

CC(C)CCc1cc(N(C)CC(C)C)nc(NCC(C)C)n1 [Compound 34a]
TR-FRET Ki ERα [2]: no binding is observed

CC(C)CCc1cc(NCC(C)C)nc(OCC(C)C)n1 [Compound 37a, [2-Isobutoxy-6-(3-methyl-butyl)-pyrimidin-4-yl]-isobutylamine]
TR-FRET Ki ERα [2]: None of these O- or S-containing pyrimidines showed any inhibition | Viable cell counts (HEC-1 cells): decreased significantly only at the highest doses of compound (20 μM)

CC(C)CCc1cc(NCC(C)C)nc(S(=O)(=O)CC(C)C)n1 [Compound 39, Isobutyl-[6-(3-methyl-butyl)-2-(2-methyl-propane-1-sulfonyl)-pyrimidin-4-yl]-amine]
TR-FRET Ki ERα [2]: None of these O- or S-containing pyrimidines showed any inhibition

LTERHKILHRLLQEGSPSD [unlabeled peptide containing the NR Box II (LXXLL motif) of SRC-1]
Ki [3]: 0.066 µM
